Experimental findings from patent publication US20230349922A1, “H2 Blockers Targeting Liver Macrophages for the Prevention and Treatment of Liver Disease and Cancer” (Université de Strasbourg, priority 2020, published 2023) are described below.

SMILES strings stand for the structures.

Holding throughout (assay type): cell-based, human
The test system of assay [1] is intracellular cAMP. Description: Intracellular cAMP level by ELISA in HCV-infected Huh7.5.1dif cells. The note with it: increase following induction of the poor-prognosis PLS (HCV Jc1 5 days), nizatidine 3 more days. Here is the method:
ELISA Assay. To assess the HCV infection and nizatidine treatment on intracellular cAMP level, Huh7.5.1^dif cells were infected with HCV Jc1 for 5 days and were incubated for 3 more days with nizatidine or DMSO as a control. The cAMP level was measured by ELISA assay using the cAMP Parameter Assay Kit (R&D System) according to manufacturer's instructions.
On the technique in general: cAMP levels reflect the balance of adenylyl cyclase and phosphodiesterase activity.

The subject of assay [2] is tumor associated macrophages (TAMs). Kind of assay: IL6 expression in M1-polarized tumor associated macrophages from patient HCCs. Particulars: patient-derived tumor macrophages. Here is the method:
FIG. 5. Effect of Nizatidine and HRH2 KO on Cytokine Expression in a Cell Culture Model for M1 Macrophages. (A) Representative picture of differentiated macrophages. To generate macrophage-like cells (MO), THP-1 cells were treated with PMA for 24 hours. To generate M1-polarized THP-1 macrophages, THP-1 cells were treated with PMA plus LPS and IFNγ. M1-polarized THP-1 were treated with nizatidine for 48 hours. (B) Gene expression of different cytokines was measured by qRT-PCR. Results are expressed as mean+s.e.m from 3 independent experiments performed in triplicate. * denotes p<0.05; ** denotes p<0.01; *** denotes p<0.001. (C) Representative picture of M1 differentiated patient-derived Kupffer cells. To generate M1-polarized macrophages, patient Kupffer cells were treated with LPS and IFNγ. (D) Gene expression of different cytokines was measured by qRT-PCR. Results are expressed as mean+s.d. from one experiment performed in duplicate. (E) IL6 expression in M1-polarized tumor associated macrophages (TAMs) isolated from different patient HCCs and treated with nizatidine. Results are expressed as mean+/−SD from one experiment performed in triplicate or quadruplicate. […] KO efficacy was assessed at genetic level by T7 endonuclease assay. […] Right: Pro-inflammatory cytokines and markers expression were analyzed by qRT-PCR (mean+/−SD n=3, one representative experiment out of two is shown).

Assay [3] has as its system prognostic liver signature (PLS). Kind of assay: cPLS model: reversal of the prognostic liver signature in HCV-infected Huh7.5.1dif cells. Particulars: Huh7.5.1dif cells infected with HCV Jc1 for 7 days, treated 3 additional days; GSEA.
For assay [4], the system named is liver macrophages. Kind of assay: scRNA-Seq of CD45+ leucocytes from patient liver tissue treated with nizatidine. The method, then: Single-Cell RNA-Seq Analyses of Patient Liver Tissues. Human cells were dissociated from HCC patient liver tissues. Fresh or cryopreserved tissues were minced into 2 to 3 mm pieces and incubated with collagenase (0.5 mg/mL) for 30 minutes at 37° C. Digested tissues were filtered through a sterile nylon mesh to separate the dispersed cells from tissue fragments and washed with Hanks' Balanced Salt Solution (HBSS). Cells were then centrifuged at 600×g for 5 minutes at 4° C. Leucocytes CD45^+ cells were separated from other cell types by flow cytometry using SH800 cell sorter (Sony). Briefly, 500,000 cells per condition were stained with human CD45 specific antibody. Living cells were selected using Zombie green staining according to manufacturer's instructions. Data were acquired using the Sony Cell Sorter Software. Cells were then cultured in MammoCultTM medium and treated with nizatidine 50 μM or DMSO vehicle control. Two days after treatment, single cells were sorted into 384 well cell capture plates (Single Cell Discovery, website: www.scdiscoveries.com) using SH800 cell sorter (Sony). The plates contain mineral oil and droplets of poly-A primers, containing a cell-specific barcode and a unique molecular identifier (UMI), enabling to distinguish the well-specific (and cell-specific) mRNA molecules. scRNA-Seq was performed by Single-Cell Discoveries B.V. using SORT-seq protocol (Muraro et al., Pancreas Cell Syst., 2016, 3: 385-394, e3). Single Cell RNA-Seq Profiling of Human Cells. scRNA-Seq analysis of patient-derived liver tissue was assessed using R version 3.5.3 with package “[…]” for clusterization, cluster analysis and DEG calculation, as previously described (Aizarani et al., Nature; 2019, 572: 199-204).

For assay [5], the system named is M1-polarized THP-1 macrophages. Kind of assay: Cytokine expression by qRT-PCR in M1-polarized THP-1 macrophages. Here is the method:
Real-Time qRT-PCR. cDNAs were synthetized by reverse transcription using SuperScript III First-Strand Synthesis SuperMix (Life Technologies). Expression of mouse IL6, TNFα and IL1β was analyzed by quantitative real-time PCR using TaqMan Gene Expression Assays (Thermo Fisher Scientific) on the CFX96 Touch Real-Time PCR Detection System PCR system (Bio-Rad). Expression of human CCL2 and TGF was analyzed using iTaq™ Universal SYBR® Green Supermix (Bio-Rad). The 2^−ΔCT method was used for relative quantification (Schmittgen and Livak, Nature Protoc., 2008, 3: 1101-1108) of mRNA with normalization to 18S. The 2^−ΔCT method was used for relative quantification (Schmittgen and Livak, Nature Protoc., 2008, 3: 1101-1108) of mRNA with normalization to GAPDH mRNA.
M1 Macrophage Polarization and HRH2 Blocker Treatment. THP1 cells were cultured in RPMI 1640 Medium with GlutaMAX™-I supplement and HEPES and supplemented with 10% FBS and gentamycin (0.05 mg/mL). M1 macrophage polarization from THP-1 was performed as previously described (Yeung et al., J. Hepatol., 2015, 62: 607-616). To generate MO THP-1 macrophages, THP1 cells were treated with PMA 320 nM for 24 hours. To generate M1-polarized THP-1 macrophages, THP-1 cells were treated with […] then with 100 ng/ml LPS and 20 ng/ml IFNγ for 18 hours. […]
A general note: Real-time PCR tracks product formation cycle by cycle.

The mark [6] stands for this setting: GSEA, nizatidine-treated vs CTRL macrophages.
The mark [7] stands for this setting: gene-level analysis in macrophages.
Setting [8] is: nizatidine 50 μM, two days, scRNA-Seq.
[9] abbreviates: activated THP1-derived macrophages.

Consider `CNC(=C[N+](=O)[O-])NCCSCc1csc(CN(C)C)n1` [Nizatidine, N-[2-[[[2-[(dimethylamino)methyl]-4-thizaolyl]methyl]thio]ethyl]-N′-methyl-2-nitro-1,1-ethene-diamine], for which, in assay [1], the “intracellular cAMP level” value is listed as “reverted”. For the same compound, the “pro-inflammatory cytokine expression (IL6)” value in assay [2] is “direct effect”. In addition, the “reversal of the poor prognosis status of the prognostic liver signature (PLS)” value in assay [3] is “PLS-reversing compounds with highest statistical significance”. Also, in assay [4] (setting [6]), the “IFNγ response and antigen processing and presentation” value is “augmenting IFNγ response and antigen processing and presentation”; the c-Myc pathway expression result is on record as “strong suppression of the c-Myc pathway expression”; the “immunoregulatory macrophage (M2) signature” value was “only partially induces the immunoregulatory macrophage (M2) signature”; the “pro-inflammatory and pro-fibrogenic responses (TNFα, IL2 and IL6 signaling pathways)” value was “suppresses pro-inflammatory and pro-fibrogenic responses”. In addition, the “pro-inflammatory macrophage (M1) signature” value in assay [4] (setting [6]) was “suppresses the pro-inflammatory macrophage (M1) signature”. In assay [4] (setting [7]), the “major histocompatibility complex (MHC) molecules expression” value is “increase in major histocompatibility complex (MHC) molecules expression”; the “neutrophil/monocyte chemoattractant and pro-inflammatory cytokine expression (CXCL5, CCL2, CCL5)” value was “decrease in neutrophil/monocyte chemoattractant and pro-inflammatory cytokine expression”; the “pro-fibrotic/tumorigenic soluble factor expression (IL6, IL1b, PDGF, MMP9, TNFα)” value is recorded as “suppression of pro-fibrotic/tumorigenic soluble factor expression”. In addition, in assay [4] (setting [8]), the “Siglec-10 expression in macrophages” value is given as “decreases expression” and the “macrophage CLEC5A expression” value is reported as “decreased macrophage CLEC5A expression”. Moreover, the pro-inflammatory cytokine expression entry in assay [5] (THP1-derived M1-polarized macrophages, nizatidine 48 hours) was “direct effect”. For the same compound, in assay [5] (setting [9]), the IL6 expression entry was “decreased” and the TNFα expression result is “decreased”.
